{"source": "a melting point compilation (Tetko et al.; mined from patent text by program, amines drawn as free bases though some values may be those of a salt)"}
{"units": {"melting point": "°C"}}
{"molecule": "O=C(O)c1cccc(-c2ccc3c(c2)N(c2ccc(Cl)cc2Cl)CCCC3)c1", "melting point": "131 to 132"}
{"molecule": "NCCCCCCCNC(=O)COCC(=O)NC1CCC2C3Cc4ccccc4C2(CCN3)C1", "note": "(centres undefined)", "melting point": "83 to 85"}
{"molecule": "Cc1cc(C(C)(C)C)cc(C)c1C1C(=O)CC(C)(C)CC1=O", "melting point": "224 to 249"}
{"molecule": "Cc1cc2c3c(ccc2cc1C=O)OC(=O)C3(C)C", "melting point": "193 to 195"}
{"molecule": "CC(C)Sc1cc2c(cc1Cl)N=C(CCl)NS2(=O)=O", "melting point": "248 to 250"}
{"molecule": "NCCc1cc(F)cc(C(F)(F)F)c1", "melting point": "> 170"}
{"molecule": "CCN(CC)C(=O)COC(=O)CCNC(=O)[C@H](Cc1ccc(-c2ccccc2)cc1)NCP(=O)(Oc1ccccc1)Oc1ccccc1", "melting point": "68 to 74"}
{"molecule": "CC(=O)N1CCN(c2cc3c(c(NCc4ccccc4)c2F)c(=O)c(C(=O)O)cn3C2CC2)CC1C", "note": "(centres undefined)", "melting point": "235 to 236"}
{"molecule": "Cc1ccc(C=CC(=O)O)cn1", "melting point": "214 to 216"}
{"molecule": "Cn1c(=O)ccc2cnc(Nc3ccccc3)nc21", "melting point": "244 to 247"}
{"molecule": "O=C(O)CCc1oc(SC2CCCCC2)nc1-c1ccc(Cl)cc1", "melting point": "136 to 137"}
{"molecule": "CSC(=S)N1Cc2c(c3ccccc3n2C)CC1C(=O)O", "note": "(centres undefined)", "melting point": "212 to 213"}
{"molecule": "CN(c1cc(OCCO)cc2cc(C3=NCC(CN4CCSCC4)S3)[nH]c12)S(=O)(=O)c1ccccn1", "note": "(centres undefined)", "melting point": "160 to 162"}
{"molecule": "CSCC(=O)[C@H](Cc1ccc(O)cc1)NC(=O)[C@H](CC(C)C)NC(=O)OCc1ccccc1", "melting point": "108 to 111"}
{"molecule": "O=C(O)COc1cc(Cl)ccc1C(=O)NCc1ccc(Br)cc1", "melting point": "172 to 173"}
{"molecule": "CCCc1cc(=O)oc2cc(OCCCN3CCN(c4ccccc4)CC3)ccc12", "melting point": "114 to 116"}
{"molecule": "CCCCC(O)c1ccc2cc(O)ccc2c1", "note": "(centres undefined)", "melting point": "109 to 111"}
{"molecule": "CC(C)CC(=O)Nc1c(C(=O)c2cccc(Cl)c2)[nH]c2cc(Cl)ccc12", "melting point": "185 to 186"}
{"molecule": "CCn1cc(C(=O)O)c(=O)c2cc(F)c(N3CCN(C)C(c4cc[nH]c4)C3)cc21", "note": "(centres undefined)", "melting point": "150 to 152"}
{"molecule": "OC(Cn1cncn1)(c1ccc(Cl)cc1)C1(F)CC1", "note": "(centres undefined)", "melting point": 128}
{"molecule": "O=C(OC(c1ccccc1)c1ccccc1)C12CCC1CN(Cc1ccccc1)C2", "note": "(centres undefined)", "melting point": "96 to 99"}
{"molecule": "C=CCCC(O)C(C)(C)N1COC(C)=C(c2ccccc2)C1=O", "note": "(centres undefined)", "melting point": "74 to 75"}
{"molecule": "Cc1cn([C@@H]2C[C@H](C(=O)OC(c3ccccc3)c3ccccc3)N(CCNC(=O)OCC3c4ccccc4-c4ccccc43)C2)c(=O)n(C(=O)c2ccccc2)c1=O", "melting point": "94 to 98"}
{"molecule": "O=C(O)c1cccc(-c2ccc(CNC(=O)c3cccnc3Oc3ccc(F)cc3)cc2)c1", "melting point": "184 to 186"}
{"molecule": "C=C(C)C(=O)OCCCCCCOc1ccc(C(=O)O)cc1", "melting point": 83}
{"molecule": "Brc1ccc(Cc2cc(Br)c(Cc3ccc(Br)cc3)cc2Br)cc1", "melting point": "161 to 167"}
{"molecule": "CC(C)n1c(N2CCN(C)CC2)nc2cc(Cl)c(N)cc21", "melting point": "192 to 193"}
{"molecule": "O=C(O)c1ccc(NCCCc2ccc(Cl)cc2)cc1", "melting point": "191 to 192"}
{"molecule": "N#Cc1[nH]c(Br)c(Br)c1Br", "melting point": "215 to 218"}
{"molecule": "CC(=O)N1CC=C(C2=C(C#N)C(c3cccc4nonc34)c3c[nH]nc3N2)CC1", "note": "(centres undefined)", "melting point": 237}
{"molecule": "CCN1CC(C)Oc2cccc3nc4c(c1c23)CCCC4", "note": "(centres undefined)", "melting point": "101 to 103"}
{"molecule": "C=C[C@@H]1O[C@](C#CC2CC2)(C(F)(F)F)c2c(ccc(F)c2F)NC1=O", "note": "(relative stereo)", "melting point": "171 to 172"}
{"molecule": "CNS(=O)(=O)c1ccccc1Nc1nc(Nc2ccc3c(c2)COC[C@@H]2CCCN32)ncc1Cl", "melting point": "187 to 188"}
{"molecule": "CC(C)(C)C(=O)Cn1ncc(-c2ccc(S(C)(=O)=O)cc2)c(-c2ccc(F)cc2)c1=O", "melting point": "168 to 170"}
{"molecule": "NC(=O)N1CCCC1COc1cncc(Cl)c1", "note": "(centres undefined)", "melting point": 95}
{"molecule": "O=C(NCc1c[nH]c(=S)n1[C@H]1CCc2c(F)cc(F)cc2C1)c1ccccc1", "melting point": "260 to 261"}
{"molecule": "COCCOc1cc2ncnc(Oc3ccc(Cl)cc3F)c2cc1OC", "melting point": "167 to 168"}
{"molecule": "CCOC(=O)c1nc2oc(C)c(C)c2c(=O)[nH]1", "melting point": "180 to 182"}
{"molecule": "N[C@@H](Cc1ccccc1)C(c1ccccc1)c1ccccc1", "melting point": "71 to 72"}
{"molecule": "CCCCc1ccc(C#Cc2ccc(C=O)cc2)cc1", "melting point": "76 to 78"}
{"molecule": "CC(=O)CCc1c(OC(C)=O)cc(C(C)C)c(OC(C)=O)c1C(C)C", "melting point": "108 to 112"}
{"molecule": "C/C(=C\\C(C)O)c1ccc(C2CCCCC2)cc1", "note": "(centres undefined)", "melting point": "67.5 to 68"}
{"molecule": "Cc1oc(-c2ccccc2)nc1COc1cccc(CON2C(=O)c3ccccc3C2=O)c1", "melting point": "146 to 147"}
{"molecule": "COC1CCC2(C)C(=CCC3C4CCC(=O)C4(C)CCC32)C1", "note": "(centres undefined)", "melting point": "133 to 135"}
{"molecule": "CCc1nc2c(N)nc3ccccc3c2n1CC(C)(C)C(N)=O", "melting point": "279 to 281"}
{"molecule": "N#CCCNC(=O)c1cccc(-c2ccc3c(c2)C(c2ccc(Cl)cc2Cl)CO3)c1", "note": "(centres undefined)", "melting point": "130 to 131"}
{"molecule": "BrCCCCCCCCCCn1c2ccccc2c2ccccc21", "melting point": "38 to 40"}
{"molecule": "Nc1nc(Cl)cc(NCCCCO)n1", "melting point": "110 to 112"}
{"molecule": "Fc1ccc(-c2cn([C@H]3CN4CCC3CC4)nn2)cc1F", "melting point": 122}
{"molecule": "COc1ccc(C2(C#N)CCC(=O)CC2)c2nc(C(C)C)oc12", "melting point": 118}
{"molecule": "CCOC(=O)C1=C(C)NN=C(C(=O)OC)C1c1ccccc1[N+](=O)[O-]", "note": "(centres undefined)", "melting point": "168 to 169"}
{"molecule": "CC(=O)NC[C@H]1CN(c2ccc(-n3nccc3-c3ccc(Br)cc3)c(F)c2)C(=O)O1", "melting point": "96.8 to 98.8"}
{"molecule": "CC(C)(C)C(=O)N[Si](C)(C)C", "melting point": "101 to 106"}
{"molecule": "CCC(CC)c1ccc(-c2ccco2)c2nc(Oc3ccc(Cl)cc3Br)n(C)c12", "melting point": "159 to 162"}
{"molecule": "CC(=S)NC[C@H]1CN(c2ccc(N3CCC(C#N)(C(C#N)C#N)CC3)c(F)c2)C(=O)O1", "melting point": "178 to 180"}
{"molecule": "C=CCN(C=O)c1ccc([N+](=O)[O-])cc1C", "melting point": 56}
{"molecule": "Cc1c(C(=O)Nc2ccc(N3CCN(CCO)CC3)c(C#N)c2)cnn1-c1ccc(F)cc1", "melting point": "179 to 180"}
{"molecule": "Nc1ccccc1CC1NCCc2ccccc21", "note": "(centres undefined)", "melting point": "69 to 71"}
{"molecule": "c1ccc2c(c1)-c1ccccc1C2Cc1nc(COc2ccc(CCCn3ccnc3)cc2)co1", "melting point": "145 to 146"}
{"molecule": "Cc1nc(C(=O)NC23CC4CC(CC(O)(C4)C2)C3)c(C)n1-c1ccccc1", "melting point": "215 to 220"}
{"molecule": "O=C1c2ccccc2C(=O)N1OCc1ccn(C(c2ccccc2)(c2ccccc2)c2ccccc2)n1", "melting point": "177 to 179"}
{"molecule": "Cc1c(Cl)cc2nc(Cl)c(Cl)nc2c1[N+](=O)[O-]", "melting point": "121 to 122"}
{"molecule": "CC(C)(N)[C@@H]1CCN(c2cc3c(c(N)c2F)c(=O)c(C(=O)O)cn3C2CC2)C1", "melting point": "> 300"}
{"molecule": "O=C(Cl)c1cccc(N2CCOCC2)c1", "melting point": "219 to 220"}
{"molecule": "ClCCCCSCc1ccc2ccccc2c1", "melting point": "47 to 49"}
{"molecule": "CN(C)C(=O)Nc1cc(CNc2ccccc2C(=O)Nc2ccc3cn(C)nc3c2)ccn1", "melting point": 184}
{"molecule": "CNCCNC(=O)c1nc(Cl)c(N)nc1N", "melting point": "142 to 143"}
{"molecule": "CCOc1ccc2c(c1)n(C1CCCCC1)c(=O)n2S(=O)(=O)c1ccc(C(=O)NC23CC4CC(CC(C4)C2)C3)cc1OC", "melting point": 228}
{"molecule": "O=C(c1ccccc1)N1CCCc2ncc3ccccc3c21", "melting point": "208 to 210"}
{"molecule": "CCCCCCCCN(O)C(=O)N(C)C", "melting point": "29 to 30"}
{"molecule": "CCSc1cnc(OCCOc2ncnc(NS(=O)(=O)c3ccc(C(C)(C)C)cc3)c2-c2ccc(C)cc2)nc1", "melting point": "177 to 178"}
{"molecule": "N#CCCOc1ccc(OCCC#N)cc1", "melting point": "138 to 140"}
{"molecule": "CCn1c(C(O)(c2cccc(F)c2)c2cccc(F)c2)nc(-c2ccncc2)c1-c1ccc(Cl)cc1", "melting point": "225 to 227"}
{"molecule": "O=C(CC(NC(=O)OCc1ccccc1)c1ccccc1)Nc1n[nH]c(=S)s1", "note": "(centres undefined)", "melting point": "222 to 223"}
{"molecule": "CC(S)C(=O)NCCc1ccccc1", "note": "(centres undefined)", "melting point": "78 to 79"}
{"molecule": "COC(=O)c1sc2nc(C)c(Cl)c(=O)n2c1C", "melting point": "140 to 141"}
{"molecule": "COc1cc(-c2ccc(N)cc2C(=O)NCCNC(=O)c2cc(N)ccc2-c2cc(OC)c(OC)c(OC)c2)cc(OC)c1OC", "melting point": "> 250"}
{"molecule": "CC1(C)CC(=O)c2c(O)ccc(Br)c2C1", "melting point": "65 to 67"}
{"molecule": "O=C(CCC1CCC(=O)O1)NCCc1ccccc1", "note": "(centres undefined)", "melting point": "86 to 87"}
{"molecule": "CC(C(=O)OCc1ccccc1)c1cccc(NC(=O)NCC(=O)N2[C@@H](c3ccccc3)CC[C@H]2C(=O)OC(C)(C)C)c1", "note": "(some centres undefined)", "melting point": 75}
{"molecule": "CCNS(=O)(=O)/C=C/C1=C(C)NC(C)=C(C(=O)OC(C)C)C1c1cccc([N+](=O)[O-])c1", "note": "(centres undefined)", "melting point": "187 to 189"}
{"molecule": "Cc1ccc(C2(Cn3cncn3)OCCO2)cc1Br", "melting point": 121}
{"molecule": "CC(C)[C@H](NC(=O)OCc1csc(N(C)C)n1)C(=O)N[C@@H](Cc1ccccc1)C[C@H](O)[C@H](Cc1ccccc1)NC(=O)OCc1cncs1", "melting point": "162 to 165"}
{"molecule": "COc1cccc(COCCC(C(=O)O)c2ccccc2)c1", "note": "(centres undefined)", "melting point": "112 to 114"}
{"molecule": "CCOC(=O)c1c(C)n(C)cc(-c2ccc(Cl)cc2)c1=O", "melting point": "200 to 201"}
{"molecule": "Brc1ccc2nc(-c3ccc4ccccc4c3)cn2c1", "melting point": "226 to 228"}
{"molecule": "CCCNC1=CC(=O)C(NCCC)=C2C1=Nc1ccccc1S2(=O)=O", "melting point": "174 to 176"}
{"molecule": "COc1cc(Nc2c(C#N)cnc3cc(-c4ccc(CNCCS(C)(=O)=O)o4)ccc23)c(Cl)cc1Cl", "melting point": "171 to 174"}
{"molecule": "N#Cc1ccc2c(c1)C(c1ncnc3nn(C4CCCCC4)cc13)C(=O)N2", "note": "(centres undefined)", "melting point": "> 325"}
{"molecule": "Cc1c(NC(=O)CCCCc2ccc(F)cc2)ccc2cc(CN3CCCC3)cnc12", "melting point": "137 to 138"}
{"molecule": "COc1cc(Cn2c(=S)sc3ccccc32)cc(OC)c1O", "melting point": "141 to 142"}
{"molecule": "Cc1nn(C)c(S(N)(=O)=O)c1[N+](=O)[O-]", "melting point": "138 to 140"}
{"molecule": "COCCN(C)S(=O)(=O)c1cc(-n2c(=O)cc(C(F)(F)F)n(C)c2=O)ccc1Cl", "melting point": "108 to 110"}
{"molecule": "COc1cc2c(Nc3ccc(C)c(OC(C)=O)c3)ncnc2cc1OCc1cccnc1", "melting point": "113 to 115"}
{"molecule": "CCOC(=O)c1cn(CCBr)c2nc(N3CCN(C(C)=O)CC3)ncc2c1=O", "melting point": "202 to 204"}
{"molecule": "CCOC(=O)C(O)CCn1cnc2c(Cl)nc(N)nc21", "note": "(centres undefined)", "melting point": "163 to 164"}
{"molecule": "COCn1c(C)nc2c3c(c(C(=O)N(C)C)cc21)CCC(c1ccccc1)O3", "note": "(centres undefined)", "melting point": "213 to 215"}
{"molecule": "Cc1ncsc1C(C)(O)c1ccsc1", "note": "(centres undefined)", "melting point": "149 to 151"}
{"molecule": "COC(=O)[C@@H]1C[C@H](N)C(=O)[C@H]2[C@@]1(C)CC[C@H]1C(=O)O[C@H](c3ccoc3)C[C@]21C", "melting point": "237 to 240"}
